Experimental data from US7196119B2, “Development of new selective estrogen receptor modulators” (The Regents of the University of California, priority 2003, dated 2007).
“Also recorded” adds a separate entry of the source. Read-outs that look alike come from different tables or passages of the source.

Assays:
[1] = test system: GABAB receptor-mediated outward current in hypothalamic arcuate neurons (membrane associated estrogen receptor); experiment: Whole-cell patch voltage clamp: attenuation of the baclofen-induced GABAB response (GIRK outward current) in hypothalamic slices; format: cell-based, guinea pig
full length (ER)β = molecular target: T1, full length (ER)β (Homo sapiens, UniProt Q92731); experiment: Estrogen receptor binding assay (spin column, [3H]estradiol competition)
T1 construct: to full length (ER)α or (ER)β*; purchased Pan Vera Corp, Madison, Wis., USA

full length (ER)α = molecular target: T2, full length (ER)α (Homo sapiens, UniProt P03372); experiment: as above
T2 construct: purchased Pan Vera Corp, Madison, Wis., USA
T2 sequence (P03372 1-595): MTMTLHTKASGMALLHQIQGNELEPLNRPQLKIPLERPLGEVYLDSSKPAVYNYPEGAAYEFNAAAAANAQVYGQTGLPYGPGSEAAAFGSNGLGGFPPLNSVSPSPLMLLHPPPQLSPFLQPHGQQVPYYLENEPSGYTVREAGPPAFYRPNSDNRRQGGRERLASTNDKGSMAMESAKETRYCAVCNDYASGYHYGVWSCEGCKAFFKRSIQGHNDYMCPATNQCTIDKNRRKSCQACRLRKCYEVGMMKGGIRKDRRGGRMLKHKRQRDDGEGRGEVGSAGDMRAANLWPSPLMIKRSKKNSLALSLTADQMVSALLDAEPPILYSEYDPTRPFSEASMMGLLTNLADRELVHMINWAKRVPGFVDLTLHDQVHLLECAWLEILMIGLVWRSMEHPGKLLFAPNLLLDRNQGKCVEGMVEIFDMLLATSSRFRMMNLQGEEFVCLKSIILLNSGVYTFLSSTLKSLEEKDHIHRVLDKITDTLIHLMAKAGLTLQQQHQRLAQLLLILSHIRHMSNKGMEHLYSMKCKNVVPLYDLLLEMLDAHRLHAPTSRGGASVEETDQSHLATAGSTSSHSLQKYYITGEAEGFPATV

uteri = experiment: Uterotropic action (uterine size/weight) in ovariectomized mice; format: in vivo, C57BL/6 mice
Procedure: Wild-type C57BL/6 mice in these studies were obtained from Jackson laboratories. All animals were maintained under controlled temperature (25° C.) and photoperiod conditions (14-h light, 10-h dark; lights on between 0700 and 2100) with food and water ad libitum. Adult mice were ovariectomized under isoflurane anesthesia, and allowed to recover for 1 week. […] The uteri were collected, weighed and fixed in 4% paraformaldehyde for later histological analysis (data not shown).

T1 sequence (Q92731 whole entry): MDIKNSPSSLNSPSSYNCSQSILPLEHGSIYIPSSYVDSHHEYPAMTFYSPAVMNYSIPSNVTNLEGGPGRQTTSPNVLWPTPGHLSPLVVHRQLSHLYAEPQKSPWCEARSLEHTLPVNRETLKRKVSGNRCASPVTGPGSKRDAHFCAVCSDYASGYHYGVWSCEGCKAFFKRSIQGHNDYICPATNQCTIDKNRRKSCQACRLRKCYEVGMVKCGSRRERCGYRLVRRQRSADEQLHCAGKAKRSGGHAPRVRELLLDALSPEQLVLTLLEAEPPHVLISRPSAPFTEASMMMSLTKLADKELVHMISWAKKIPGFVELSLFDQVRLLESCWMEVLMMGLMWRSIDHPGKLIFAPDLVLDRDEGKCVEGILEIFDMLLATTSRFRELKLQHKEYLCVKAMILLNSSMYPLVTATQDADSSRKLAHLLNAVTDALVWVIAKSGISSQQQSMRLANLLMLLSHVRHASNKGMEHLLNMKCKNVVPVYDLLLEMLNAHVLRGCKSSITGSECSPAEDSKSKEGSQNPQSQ

4-hydroxytamoxifen
block of the baclofen response [1]: 25% | Relative binding affinity (ER)β (full length (ER)β): 43% | Relative binding affinity (ER)α (full length (ER)α): 36%

C[C@]12CC[C@@H]3c4ccc(O)cc4CC[C@H]3[C@@H]1CC[C@H]2O [17α-estradiol]
effect on the baclofen (GABAB) response [1]: no effect

C[C@]12CC[C@@H]3c4ccc(O)cc4CC[C@H]3[C@@H]1CC[C@@H]2O [17β-estradiol]
R2/R1 (second over first baclofen response) [1]: 58.6±3.4% | decrease in the response to a second application of baclofen [1]: 41% | effect on the baclofen (GABAB) response [1]: no effect

CN(C)CCCn1cc(C2=C(c3c[nH]c4ccccc34)C(=O)NC2=O)c2ccccc21.Cl [BIS, bisindolylmaleimide I hydrochloride]
effect on the 17β-estradiol-induced suppression of the GABAB response [1]: nearly eliminated the effects of 17β-estradiol

CC/C(=C(\C(=O)Nc1ccc(OCCN(C)C)cc1)c1ccc(O)cc1)c1ccccc1 [Compound 8, (E,Z)-2-(4-hydroxyphenyl)-3-phenylpent-2-enoic acid [4-(2-dimethylaminoethoxy)-phenyl]amide]
effect on the baclofen (GABAB) response ([1]; 10 nM, applied alone): as efficacious as 100 nM 17β-estradiol; also recorded: stronger activator of this rapid 17β-estradiol response than 17β-estradiol | effect on the baclofen (GABAB) response ([1]; 10 nM, applied alone, listed as compound 8): inhibited the baclofen response | uterotropic actions (uteri; 2 or 5 μg daily for 2 days): no uterotropic actions | binding affinity for nuclear (ER)α compared to that of 17β-estradiol (full length (ER)α; fold reduction versus 17β-estradiol): approximately one million-fold reduced binding affinity | Relative binding affinity (ER)α (full length (ER)α; percentage of the potency of 17β-estradiol (IC50 estradiol / IC50 ligand x 100)): 4.3 × 10^−6%

Cl.Cl.O=S(=O)(NCCNC/C=C/c1ccc(Br)cc1)c1cccc2cnccc12 [Compound H89]
effect on the 17β-estradiol-induced suppression of the GABAB response ([1]; 10 μM, with 17β-estradiol): blocked

N#CC(=C(/N)Sc1ccccc1N)/C(C#N)=C(/N)Sc1ccccc1N [Compound U0126]
effect on the 17β-estradiol-induced suppression of the GABAB response ([1]; 5 μM, with 17β-estradiol): did not affect 17β-estradiol inhibition of baclofen responses

COc1ccc2c(c1)CC[C@@H]1[C@@H]2CC[C@]2(C)[C@@H](NCCCCCCN3C(=O)C=CC3=O)CC[C@@H]12 [Compound U73122]
effect on the 17β-estradiol-induced suppression of the GABAB response ([1]; 10 μM, with 17β-estradiol): blocked

COc1ccc2c(c1)CC[C@@H]1[C@@H]2CC[C@]2(C)[C@@H](NCCCCCCN3C(=O)CCC3=O)CC[C@@H]12 [Compound U73343]
effect on the 17β-estradiol-induced suppression of the GABAB response ([1]; 10 μM, with 17β-estradiol): no effect

CC/C(=C(\c1ccccc1)c1ccc(/C=C/C(=O)O)cc1)c1ccccc1 [GW-5638]
effect on the baclofen (GABAB) response ([1]; 1 μM, applied alone): significantly more efficacious than 17β-estradiol

Cn1c2ccccc2c2c3c(c4c5ccccc5n(CCC#N)c4c21)CNC3=O [Gö6976]
effect on the 17β-estradiol-induced suppression of the GABAB response ([1]; test concentration not given, with 17β-estradiol): without effect

C[C@]12CC[C@@H]3c4ccc(O)cc4C[C@@H](CCCCCCCCC[S+]([O-])CCCC(F)(F)C(F)(F)F)[C@H]3[C@@H]1CC[C@@H]2O (stereo partly shown) [ICI 182, 780]
effect on the baclofen (GABAB) response ([1]; 1 μM, applied alone): no effect | effect on the 17β-estradiol-induced suppression of the GABAB response ([1]; 1 μM, with 17β-estradiol): blocked

COc1cccc(-c2cc(=O)c3ccccc3o2)c1N [PD98059]
effect on the 17β-estradiol-induced suppression of the GABAB response ([1]; 10 μM, with 17β-estradiol): did not affect 17β-estradiol inhibition of baclofen responses | R2/R1 (second over first baclofen response) ([1]; PD98059 (10 μM, in the pipette) + 17β-estradiol, baclofen 5 μM): 66.1±11.8%

O=C(c1ccc(OCCN2CCCCC2)cc1)c1c(-c2ccc(O)cc2)sc2cc(O)ccc12 [Raloxifene, raloxifene]
effect on the baclofen (GABAB) response [1]: completely mimicked the actions of 17β-estradiol

Nc1ncnc2c1ncn2[C@@H]1O[C@@H]2COP(O)(=S)O[C@H]2[C@H]1O (stereo partly shown) [Rp-cAMP]
effect on the 17β-estradiol-induced suppression of the GABAB response ([1]; 200 μM, dialysis, with 17β-estradiol): abolished

CC/C(=C(\c1ccccc1)c1ccc(OCCN(C)C)cc1)c1ccccc1 [Tamoxifen, tamoxifen]
R2/R1 (second over first baclofen response) [1]: 60.4±6.6% | effect on the 17β-estradiol-induced suppression of the GABAB response [1]: did not attenuate the effects of 17β-estradiol | effect on the baclofen (GABAB) response [1]: inactive

C[C@]12CC[C@@H]3c4ccc(OC(=O)c5ccccc5)cc4CC[C@H]3[C@@H]1CC[C@@H]2O [estradiol benzoate]
uterine size (uteri; 1 μg daily for 2 days, compared with oil vehicle): noticeable increase in uterine size

CC(=O)c1c(O)c(C)c(O)c(Cc2c(O)c3c(c(C(=O)/C=C/c4ccccc4)c2O)OC(C)(C)C=C3)c1O [rottlerin]
effect on the 17β-estradiol-induced suppression of the GABAB response [1]: completely blocked

Ac-LGLNLKEYNLV-OH [Gq peptide]
effect on the 17β-estradiol-induced suppression of the GABAB response [1]: significantly blocked
